# Results reported in patent US9676773B2, “Azaindole derivative” (TAIHO PHARMACEUTICAL CO., LTD., priority 2014, dated 2017).
# Columns and labels:
# Format in all cases: biochemical
# [1] = molecular target: T1, purified recombinant human JAK1 protein (Homo sapiens, UniProt P23458); experiment: Measurement of JAK1 kinase-inhibitory activity; settings: substrate peptide 1 μM, ATP 75 M (so in the source), 25° C., 120 minutes
# T1 construct: purchased Carna Biosciences, Inc
# Procedure: 1) Measurement of JAK1 Kinase-Inhibitory Activity
# The activity of the compound of the present invention to inhibit the activity of JAK1 kinase was measured.
# (§1) Among materials for the measurement of this inhibitory activity, a substrate peptide and a kinase protein were acquired as follows. As such a substrate peptide, a substrate peptide for QSS Assist™ JAK1-MSA assay kit (Carna Biosciences, Inc.) was purchased. As such a kinase protein, a purified recombinant human JAK1 protein (Carna Biosciences, Inc.) was purchased.
# The method for measuring the inhibitory activity is as follows. First, the compounds of the present invention were each dissolved in dimethyl sulfoxide (DMSO), and a serial dilution was then prepared by the use of DMSO. Subsequently, a serial dilution solution of the compound (the final concentration of DMSO upon a kinase reaction: 5.0%) or DMSO (final concentration: 5.0%) was mixed with a solution containing the substrate peptide (final concentration: 1 μM), magnesium chloride (final concentration: 5 mM) and ATP (final concentration: 75 µM) in a buffer for kinase reaction (20 mM HEPES (pH 7.5), 2 mM dithiothreitol and 0.01% Triton X-100). Thereafter, a JAK1 protein was further added to the mixed solution, and the obtained mixture was then incubated at 25° C. for 120 minutes to carry out a kinase reaction. To the reaction solution, EDTA was added to a final concentration of 30 mM, so as to terminate the reaction. Finally, with LabChip EZ Reader II (Perkin Elmer Corp.), an unphosphorylated substrate peptide (S) and a phosphorylated peptide (P) were subjected to microchannel capillary electrophoresis, so that the two peptides were separated from each other and were then detected. The amount of a phosphorylation reaction was obtained based on the heights of the peaks of S and P, and the concentration of the compound capable of inhibiting 50% of the phosphorylation reaction was defined as an IC50 value (nM).
# [2] = molecular target: T2, purified recombinant human JAK2 protein (Homo sapiens, UniProt O60674); experiment: Measurement of JAK2 kinase-inhibitory activity; settings: FL-Peptide 22 1 μM, ATP 10 μM, 25° C., 80 minutes
# T2 construct: purchased Carna Biosciences, Inc
# T2 sequence (O60674 whole entry): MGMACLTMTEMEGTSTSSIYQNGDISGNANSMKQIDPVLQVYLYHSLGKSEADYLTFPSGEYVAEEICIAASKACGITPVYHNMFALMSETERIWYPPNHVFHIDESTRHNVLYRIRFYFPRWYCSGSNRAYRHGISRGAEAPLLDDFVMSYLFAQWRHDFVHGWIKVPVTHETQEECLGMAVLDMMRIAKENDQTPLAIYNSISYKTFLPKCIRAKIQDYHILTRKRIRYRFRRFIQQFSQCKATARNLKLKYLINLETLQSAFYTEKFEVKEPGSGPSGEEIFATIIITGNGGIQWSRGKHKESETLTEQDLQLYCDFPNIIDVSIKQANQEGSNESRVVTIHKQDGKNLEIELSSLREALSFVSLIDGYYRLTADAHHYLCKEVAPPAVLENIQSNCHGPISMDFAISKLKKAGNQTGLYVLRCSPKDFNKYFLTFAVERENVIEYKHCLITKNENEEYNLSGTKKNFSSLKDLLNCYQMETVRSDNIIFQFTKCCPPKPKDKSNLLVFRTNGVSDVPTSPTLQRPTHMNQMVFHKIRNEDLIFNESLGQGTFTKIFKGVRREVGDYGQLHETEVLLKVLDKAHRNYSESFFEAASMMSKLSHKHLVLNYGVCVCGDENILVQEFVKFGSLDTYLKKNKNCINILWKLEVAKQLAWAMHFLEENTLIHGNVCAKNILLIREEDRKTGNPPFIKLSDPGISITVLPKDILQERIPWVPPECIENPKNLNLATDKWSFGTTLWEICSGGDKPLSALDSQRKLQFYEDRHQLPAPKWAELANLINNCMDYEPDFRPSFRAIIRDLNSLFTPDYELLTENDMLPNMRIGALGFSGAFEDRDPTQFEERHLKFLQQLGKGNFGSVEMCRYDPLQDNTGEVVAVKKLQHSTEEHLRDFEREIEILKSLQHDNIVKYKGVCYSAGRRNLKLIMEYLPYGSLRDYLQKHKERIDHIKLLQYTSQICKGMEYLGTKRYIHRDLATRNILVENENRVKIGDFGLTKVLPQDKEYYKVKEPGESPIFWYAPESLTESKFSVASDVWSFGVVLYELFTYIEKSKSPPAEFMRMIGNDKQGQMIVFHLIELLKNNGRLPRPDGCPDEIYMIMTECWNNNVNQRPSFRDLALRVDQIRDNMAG
# Procedure: 2) Measurement of JAK2 Kinase-Inhibitory Activity
# The activity of the compound of the present invention to inhibit the activity of JAK2 kinase was measured.
# as §1, with “FL-Peptide 22 (Perkin Elmer Corp.)” for “a substrate peptide for QSS Assist™ JAK1-MSA assay kit (Carna Biosciences, Inc.)”, “JAK2” for “JAK1”
# (§2) The method for measuring the inhibitory activity is as follows. First, a serial dilution of the compound of the present invention was prepared by the same method as that described in the above section regarding JAK1. This serial dilution solution (the final concentration of DMSO upon a kinase reaction: 5.0%) or DMSO (final concentration: 5.0%) was mixed with a solution containing the substrate peptide (final concentration: 1 μM), magnesium chloride (final concentration: 10 mM) and ATP (final concentration: 10 μM) in a buffer for kinase reaction (15 mM Tris (pH 7.5), 2 mM dithiothreitol and 0.01% Tween 20). Thereafter, a JAK2 protein was further added to the mixed solution, and the obtained mixture was then incubated at 25° C. for 80 minutes to carry out a kinase reaction. To the reaction solution, EDTA was added to a final concentration of 30 mM, so as to terminate the reaction. After termination of the reaction, the measurement and the data analysis were carried out by the same methods as those described in the above section regarding JAK1.
# [3] = molecular target: T3, purified recombinant human JAK3 protein (Homo sapiens, UniProt P52333); experiment: Measurement of JAK3 kinase-inhibitory activity; settings: substrate peptide 1 μM, ATP 5 μM, 25° C., 80 minutes
# T3 construct: purchased Carna Biosciences, Inc
# T3 sequence (P52333 1-1124): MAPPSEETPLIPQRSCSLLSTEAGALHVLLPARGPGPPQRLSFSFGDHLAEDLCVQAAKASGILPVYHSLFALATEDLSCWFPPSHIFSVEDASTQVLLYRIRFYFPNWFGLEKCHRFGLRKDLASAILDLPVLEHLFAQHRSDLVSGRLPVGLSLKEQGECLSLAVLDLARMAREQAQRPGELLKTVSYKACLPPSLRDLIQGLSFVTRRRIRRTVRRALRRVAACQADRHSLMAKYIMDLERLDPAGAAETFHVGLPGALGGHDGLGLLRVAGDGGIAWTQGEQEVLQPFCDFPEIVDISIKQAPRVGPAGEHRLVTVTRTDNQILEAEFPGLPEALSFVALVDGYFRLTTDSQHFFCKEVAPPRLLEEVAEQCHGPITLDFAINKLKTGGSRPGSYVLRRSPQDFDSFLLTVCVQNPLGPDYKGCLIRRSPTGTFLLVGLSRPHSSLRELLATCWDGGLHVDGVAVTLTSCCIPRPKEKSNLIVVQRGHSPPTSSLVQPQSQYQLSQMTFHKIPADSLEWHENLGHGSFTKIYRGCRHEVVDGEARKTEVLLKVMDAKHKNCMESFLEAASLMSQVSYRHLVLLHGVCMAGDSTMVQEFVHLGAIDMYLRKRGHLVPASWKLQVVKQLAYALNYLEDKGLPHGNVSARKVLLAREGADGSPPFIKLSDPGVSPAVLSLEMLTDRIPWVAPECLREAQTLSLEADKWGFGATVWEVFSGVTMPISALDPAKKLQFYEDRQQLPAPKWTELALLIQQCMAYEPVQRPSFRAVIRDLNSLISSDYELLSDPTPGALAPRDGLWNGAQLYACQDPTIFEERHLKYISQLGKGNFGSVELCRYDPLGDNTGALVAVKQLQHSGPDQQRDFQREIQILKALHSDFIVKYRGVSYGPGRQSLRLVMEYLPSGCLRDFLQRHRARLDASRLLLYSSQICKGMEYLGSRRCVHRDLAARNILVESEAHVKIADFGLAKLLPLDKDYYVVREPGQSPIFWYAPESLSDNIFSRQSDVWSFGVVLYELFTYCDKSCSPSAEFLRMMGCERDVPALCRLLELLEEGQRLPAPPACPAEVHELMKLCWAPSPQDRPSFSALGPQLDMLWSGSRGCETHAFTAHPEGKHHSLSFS
# Procedure: 3) Measurement of JAK3 Kinase-Inhibitory Activity
# The activity of the compound of the present invention to inhibit the activity of JAK3 kinase was measured.
# as §1, with “JAK3-MSA” for “JAK1-MSA”, “JAK3” for “JAK1”
# as §2, with “5” for “10”, “(20” for “(15”, “HEPES” for “Tris”, “Triton X-100).” for “Tween 20).”, “JAK3” for “JAK2”
# T1 sequence (P23458 whole entry): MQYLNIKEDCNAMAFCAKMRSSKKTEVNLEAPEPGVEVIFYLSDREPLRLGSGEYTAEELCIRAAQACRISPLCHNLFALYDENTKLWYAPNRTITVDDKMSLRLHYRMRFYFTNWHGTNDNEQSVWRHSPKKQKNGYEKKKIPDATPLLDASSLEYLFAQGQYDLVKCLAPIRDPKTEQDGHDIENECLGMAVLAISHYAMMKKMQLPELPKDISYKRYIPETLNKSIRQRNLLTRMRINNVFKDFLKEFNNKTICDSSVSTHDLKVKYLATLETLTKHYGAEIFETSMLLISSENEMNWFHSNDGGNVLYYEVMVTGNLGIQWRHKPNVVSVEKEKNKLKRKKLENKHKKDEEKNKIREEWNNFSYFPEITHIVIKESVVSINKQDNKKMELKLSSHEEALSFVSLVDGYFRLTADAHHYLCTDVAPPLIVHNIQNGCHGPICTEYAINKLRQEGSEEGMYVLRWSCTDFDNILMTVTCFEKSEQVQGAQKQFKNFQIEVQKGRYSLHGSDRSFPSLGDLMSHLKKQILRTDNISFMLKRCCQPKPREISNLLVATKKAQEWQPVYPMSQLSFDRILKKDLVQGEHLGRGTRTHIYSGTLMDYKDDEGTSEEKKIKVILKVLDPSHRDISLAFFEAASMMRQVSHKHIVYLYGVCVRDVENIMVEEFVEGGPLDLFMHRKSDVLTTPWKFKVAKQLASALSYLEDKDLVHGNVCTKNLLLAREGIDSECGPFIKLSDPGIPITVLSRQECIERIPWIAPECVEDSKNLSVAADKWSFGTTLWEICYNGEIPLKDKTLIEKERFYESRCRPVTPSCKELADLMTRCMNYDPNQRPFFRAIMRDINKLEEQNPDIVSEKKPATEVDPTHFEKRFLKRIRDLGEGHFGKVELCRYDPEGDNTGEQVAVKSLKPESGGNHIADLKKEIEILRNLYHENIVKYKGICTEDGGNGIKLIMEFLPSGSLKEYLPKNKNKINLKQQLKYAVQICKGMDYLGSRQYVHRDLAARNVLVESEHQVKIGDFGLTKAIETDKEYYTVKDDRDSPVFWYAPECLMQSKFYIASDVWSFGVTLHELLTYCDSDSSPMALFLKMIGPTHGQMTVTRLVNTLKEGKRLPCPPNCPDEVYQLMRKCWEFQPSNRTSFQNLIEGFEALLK
Compound,IC50 [1] [µM],IC50 [2] [µM],IC50 [3] [µM]
"C=CC(=O)NC1CCC=C(c2ccnc3[nH]cc(-c4cccnc4)c23)C1 (stereo not drawn) [Compound 4, N-(3-(3-(Pyridin-3-yl)-1H-pyrrolo[2,3-b]pyridin-4-yl)cyclohex-3-en-1-yl)acrylamide]",7,2.6,0.00053
"C=CC(=O)NC1CCC=C(c2ccnc3[nH]cc(C4=CC(=O)CCC4)c23)C1 (stereo not drawn) [Compound 32, N-(3-(3-(3-Oxocyclohex-1-en-1-yl)-1H-pyrrolo[2,3-b]pyridin-4-yl)cyclohex-3-en-1-yl)acrylamide]",> 10,3,0.00072
"C=CC(=O)NC1CCC=C(c2ccnc3[nH]cc(-c4ccc(N)nc4)c23)C1 (stereo not drawn) [Compound 39, N-(3-(3-(6-Aminopyridin-3-yl)-1H-pyrrolo[2,3-b]pyridin-4-yl)cyclohex-3-en-1-yl)acrylamide]",> 10,4.8,0.00083
"C=CC(=O)NC1CCC=C(c2ccnc3[nH]cc(-c4nnc(CC)o4)c23)C1 (stereo not drawn) [Compound 51, N-(3-(3-(5-Ethyl-1,3,4-oxadiazol-2-yl)-1H-pyrrolo[2,3-b]pyridin-4-yl)cyclohex-3-en-1-yl)acrylamide]",3,0.38,0.00061
"C=CC(=O)NC1CCC=C(c2ccnc3[nH]cc(C4=CCCCC4)c23)C1 (stereo not drawn) [Compound 30, N-(3-(3-(cyclohex-1-en-1-yl)-1H-pyrrolo[2,3-b]-pyridin-4-yl)cyclohex-3-en-1-yl)acrylamide]",3.2,1.4,0.00048
"C=CC(=O)NC1CCC=C(c2ccnc3[nH]cc(-c4ccc(C=O)o4)c23)C1 (stereo not drawn) [Compound 9, N-(3-(3-(5-Formylfuran-2-yl)-1H-pyrrolo[2,3-b]pyridin-4-yl)cyclohex-3-en-1-yl)acrylamide]",2.4,0.43,< 0.0003
"C=CC(=O)NC1CCC=C(c2ccnc3[nH]cc(-c4cccnc4F)c23)C1 (stereo not drawn) [Compound 38, N-(3-(3-(2-Fluoropyridin-3-yl)-1H-pyrrolo[2,3-b]pyridin-4-yl)cyclohex-3-en-1-yl)acrylamide]",5.8,2.5,0.00067
"C=CC(=O)NC1CCC=C(c2ccnc3[nH]cc(-c4ccc[n+]([O-])c4)c23)C1 (stereo not drawn) [Compound 43, 3-(4-(5-Acrylamidecyclohex-1-en-1-yl)-1H-pyrrolo[2,3-b]pyridin-3-yl)pyridine 1-oxide]",> 10,9.1,0.00093
"C=CC(=O)NC1CCC=C(c2ccnc3[nH]cc(-c4cncs4)c23)C1 (stereo not drawn) [Compound 13, N-(3-(3-(Thiazol-5-yl)-1H-pyrrolo[2,3-b]pyridin-4-yl)cyclohex-3-en-1-yl)acrylamide]",5.2,2,0.00034
"C=CC(=O)NC1CCC=C(c2ccnc3[nH]cc(C4=CCCC4)c23)C1 (stereo not drawn) [Compound 33, N-(3-(3-(Cyclocyclopent-1-en-1-yl)-1H-pyrrolo[2,3-b]pyridin-4-yl)cyclohex-3-en-1-yl)acrylamide]",3.6,1.4,0.0006
"C=CC(=O)NC1CCC=C(c2ccnc3[nH]cc(-c4ccncc4)c23)C1 (stereo not drawn) [Compound 2, N-(3-(3-(Pyridin-4-yl)-1H-pyrrolo[2,3-b]pyridin-4-yl)cyclohex-3-en-1-yl)acrylamide]",> 10,3.1,0.00038
"C=CC(=O)NC1CCC=C(c2c(C#N)cnc3[nH]cc(-c4ccco4)c23)C1 (stereo not drawn) [Compound 45, N-(3-(5-Cyano-3-(furan-2-yl)-1H-pyrrolo[2,3-b]pyridin-4-yl)cyclohex-3-en-1-yl)acrylamide]",1.6,0.44,0.00034
"C=CC(=O)NC1CCC=C(c2ccnc3[nH]cc(-c4cncc(CO)c4)c23)C1 (stereo not drawn) [Compound 11, N-(3-(3-(5-(Hydroxymethyl)pyridin-3-yl)-1H-pyrrolo[2,3-b]pyridin-4-yl)cyclohex-3-en-1-yl)acrylamide]",9.5,1.9,0.00049
"C=CC(=O)NC1CCC=C(c2ccnc3[nH]cc(-c4n[nH]c(=O)o4)c23)C1 (stereo not drawn) [Compound 52, N-(3-(3-(5-Oxo-4,5-dihydro-1,3,4-oxadiazol-2-yl)-1H-pyrrolo[2,3-b]pyridin-4-yl)cyclohex-3-en-1-yl)acrylamide]",0.89,0.48,< 0.0003
"C=CC(=O)NC1CCC=C(c2c(OC)cnc3[nH]cc(-c4ccco4)c23)C1 (stereo not drawn) [Compound 17, N-(3-(3-(Furan-2-yl)-5-methoxy-1H-pyrrolo[2,3-b]pyridin-4-yl)cyclohex-3-en-1-yl)acrylamide]",0.86,0.17,< 0.0003
"C=CC(=O)NC1CCC=C(c2ccnc3[nH]cc(-c4nnc(C)o4)c23)C1 (stereo not drawn) [Compound 50, N-(3-(3-(5-Methyl-1,3,4-oxadiazol-2-yl)-1H-pyrrolo[2,3-b]pyridin-4-yl)cyclohex-3-en-1-yl)acrylamide]",3.8,0.92,0.00062
